In article PMC7773843 (Frontiers in Pharmacology, 2020):

What was measured:
HL-7702 = test: cells; set-up: anti-proliferative / cytotoxicity assay on cell lines, IC50; settings: Homo sapiens, L02, read-out: IC50 (µM) HL-7702
Source text: (§1) As shown in SPR and ITC data, the binding affinity of OC to Cath B was weaker than that of OC to HSPA8, justifying our selection of HSPA8 for further studies. To evaluate whether OC potentially binds to HSPA8 in cell lysates, we synthesized OC_biotin ([Wang et al., 2016]; Supplementary Figure S8) and performed a pulldown assay using avidin beads. We first examined whether OC_biotin has the same binding affinity with that of OC to HSPA8 using SPR and ITC assays. […] We then examined the anticancer activities of OC_biotin and OC in several cancer cell lines. As shown in Supplementary Table S4, OC_biotin exerted similar anti-proliferative activity to that of OC in multiple cancer cell lines, with IC50 ranging from 5 to 20 µM. […] By using HeLa cells that stably expressed GFP-LC3, we measured the GFP-LC3 puncta increment upon OC, OC_biotin and Hydroxychloroquine (HCQ) treatment. […] Avidin beads were used to perform the OC_biotin immunoprecipitation assay with cell lysates. Consistent with the SPR and ITC assays, we pulled down HSPA8 using cell lysates.

PANC-1 = test: cells; set-up: anti-proliferative / cytotoxicity assay on cell lines, IC50; settings: Homo sapiens, PANC-1, read-out: IC50 (µM)
Source text: as §1

Hela = test: cells; set-up: anti-proliferative / cytotoxicity assay on cell lines, IC50; settings: Homo sapiens, HeLa, read-out: IC50 (µM)
Source text: as §1

MDA-MB-231 = test: cells; set-up: anti-proliferative / cytotoxicity assay on cell lines, IC50; settings: Homo sapiens, MDA-MB-231, read-out: IC50 (µM)
Source text: as §1

HCT116-DKO = test: cells; set-up: anti-proliferative / cytotoxicity assay on cell lines, IC50; settings: read-out: IC50 (µM)
Source text: as §1

A549 = test: cells; set-up: anti-proliferative / cytotoxicity assay on cell lines, IC50; settings: Homo sapiens, A549, read-out: IC50 (µM)
Source text: as §1

PC-3 = test: cells; set-up: anti-proliferative / cytotoxicity assay on cell lines, IC50; settings: Homo sapiens, PC-3, read-out: IC50 (µM)
Source text: as §1

[1] = biological target: T1, heat shock 70 kDa protein 8 (HSPA8) (Homo sapiens, UniProt P11142); test: ITC (KD […]); SPR KD […] ([…] also printed); thermal shift lowers Tm by ~[…]°C; type: binding
T1 construct: Full-length HSPA8, his-tagged, expressed in E. coli

cathepsin B (Cath B) = biological target: T2, cathepsin B (Cath B) (Homo sapiens, UniProt P07858); test: ITC (KD […]); SPR KD […]; protease activity IC50 […]; type: binding
T2 construct: gene CTSB

T1 sequence (P11142 whole entry): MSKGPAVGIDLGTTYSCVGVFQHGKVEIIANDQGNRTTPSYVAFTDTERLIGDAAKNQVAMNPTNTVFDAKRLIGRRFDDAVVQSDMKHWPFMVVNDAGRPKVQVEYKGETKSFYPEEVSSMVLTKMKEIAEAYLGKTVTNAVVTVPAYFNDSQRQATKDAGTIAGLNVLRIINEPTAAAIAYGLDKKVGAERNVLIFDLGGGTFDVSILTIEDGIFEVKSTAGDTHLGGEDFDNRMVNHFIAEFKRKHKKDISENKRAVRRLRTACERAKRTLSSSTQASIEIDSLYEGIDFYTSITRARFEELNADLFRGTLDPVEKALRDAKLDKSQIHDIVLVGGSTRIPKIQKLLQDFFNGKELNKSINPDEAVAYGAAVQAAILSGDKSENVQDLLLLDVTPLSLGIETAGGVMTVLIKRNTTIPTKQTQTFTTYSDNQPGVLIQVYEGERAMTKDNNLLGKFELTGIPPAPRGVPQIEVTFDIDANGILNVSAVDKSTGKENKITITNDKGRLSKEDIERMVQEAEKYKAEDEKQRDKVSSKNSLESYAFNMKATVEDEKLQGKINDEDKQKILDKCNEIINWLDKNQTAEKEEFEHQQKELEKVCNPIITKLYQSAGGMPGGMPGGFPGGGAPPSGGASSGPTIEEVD

Structure (SMILES): COc1cc([C@@H]2c3cc4c(cc3[C@@H](O[C@@H]3O[C@@H]5CO[C@@H](C)O[C@H]5[C@H](O)[C@H]3O)[C@H]3COC(=O)[C@H]23)OCO4)cc(OC)c1O [Etoposide]
- IC50 (HL-7702): 1.42 ± 0.2 µM
- IC50 (PANC-1): 22.7 ± 1.7 µM

Structure (SMILES): CC(C)=CCC/C(C)=C/C[C@@H]1C[C@]2(CC=C(C)C)C(=O)[C@@](CC=C(C)C)(C(=O)C(C(=O)c3ccc(O)c(O)c3)=C2O)[C@@]1(C)CCC=C(C)C [OC, Oblongifolin C]
- IC50 (HL-7702): 5.16 ± 0.4 µM
- IC50 (Hela): 11 ± 1.2 µM
- IC50 (MDA-MB-231): 15.9 ± 1.1 µM
- IC50 (PANC-1): 17.5 ± 0.9 µM
- IC50 (HCT116-DKO): 12.2 ± 0.9 µM
- IC50 (A549): 7.49 ± 0.9 µM
- IC50 (PC-3): 10.7 ± 0.6 µM
- Kd [1]: 6.2 µM
- Kd (cathepsin B (Cath B)): 25.6 µM
